{"source": "patent US11351218B2", "about": "“Composition for preventing or treating glioblastoma comprising Platycodon grandiflorum A. De Candolle, Scutellaria baicalensis, Phellodendron amurense Ruprecht or Rubus coreanus” (University-Industry Cooperation Group of Kyung Hee …, priority 2019, dated 2022)", "key": {"U87MG and U373MG cells [1]": {"test_system": "U87MG and U373MG cells", "test": "Cholesterol cell-based detection assay (filipin III staining) in GBM cells", "set-up": "species or system human", "settings": "PD 10 μM or U18666a 1 μM, 24 hours", "method": "FIGS. 15A and 15B show the results that PD promotes accumulation of cholesterol in lysosomes. Cells were treated with DMSO, PD (10 μM), or U18666a (1 μM) for 24 hours. […] Total cholesterol levels are expressed in cholesterol (μg) per protein (mg) of cell lysate and are shown as means±SD from two independent experiments.\nCells grown on coverslips were treated with the materials. Then, the cells were fixed with 4% PFA at room temperature for 10 minutes. The solution of Filipin III (Cayman) was added for staining of […] cholesterol and the samples were incubated in a dark room for 30 minutes. The images were examined under a Zeiss laser confocal microscope.\nThe present inventors concluded that PD inhibits the maturation of autophagosome into autolysosomes by inhibiting lysosomal degradation and an autophagosome-lysosome fusion in GBM cells. […] To examine whether the defect in the autophagosome-lysosome fusion by PD is due to altered intracellular cholesterol levels, the PD-treated GBM cells were stained with filipin-III, which is a fluorescent dye that binds to cholesterol. […] As can be confirmed in FIG. 14A, this filipin-III staining pattern is very similar to that found in GBM cells treated with U18666A, implying that PD blocks cholesterol release from lysosome and accumulates cholesterol in lysosomes."}, "U87MG and U373MG cells [2]": {"test_system": "U87MG and U373MG cells", "test": "Cell morphology (vacuole formation) under optical microscope, GBM cells", "assay_type": "cell-based, human", "settings": "10 μM PD, 24 hours", "method": "FIGS. 6A and 6B show the results that PD induces a decrease in cell viability and vacuole formation. […] Data shown represent the means of quintuplicate measurements which were repeated three times. The results are presented as a percentage of control (means±SD).\nInhibition of autophagy has been reported to cause cancer cell death. Therefore, the cytotoxic effects of PD on U87MG, U373MG, and normal astrocytes were examined. After treating these cells with various doses of PD for 48 hours, their cell viability was analyzed by WST1 assays. […] As can be confirmed in FIG. 6B, morphological changes were also visualized by an optical microscope after exposure of GBM cells to 10 μM PD for 24 hours."}, "[3]": {"test_system": "A549, H358, MCF7, HT29 and HepG2 cells", "test": "Immunoblot of LC3B and SQSTM1 in several cancer cell lines", "assay_type": "cell-based", "settings": "24 hours, dose-dependent, all cancer cells tested", "method": "After treatment with indicated concentrations of PD or PG for 24 hours, the protein levels of LC3B and SQSTM1 were detected by immunoblot analysis in several cancer cell lines including A549 and H358 (lung cancer), MCF7 (breast cancer), HT29 (colon cancer), and HepG2 (liver cancer). GAPDH was used as a loading control.\nCells treated with the concentrations and materials described in FIGS. 1-3B, 7, 8, 10, 13, 16, 18, and 20 were lysed in buffer containing 20 mM Tris-HCl (pH 7.5), 150 mM NaCl, 1 mM EDTA, 1 mM Na2EDTA, 1 mM EGTA, 1% NP-40, 1% sodium deoxycholate, 1 mM Na3VO4, 1 mM MPI, 1 mM PMSF, and PI cocktails for 15 to 20 minutes on ice. Cell lysates were separated by SDS-PAGE and transferred to nitrocellulose membranes. Immunodetection was performed with the following primary antibodies: rabbit anti-LC3B, rabbit anti-cathepsin B, rabbit-anti GAPDH (Cell Signaling Technology, Danvers, Mass.), mouse anti-SQSTM1/p62, and goat anti-cathepsin D (Santa CruzKPL, Gaithersburg, Md., USA) were incubated at room temperature for 1 hour. The protein bands were detected with ECL western Blotting Substrate (Thermo Fisher Scientific, Waltham, Mass., USA).\nIn these studies, they were carried out to examine the accumulation of LC3B-II without checking p62 levels upon PD treatment and conclusions were drawn that PD acts as an inducer of autophagic cell death in these cancer cells. […]"}, "U87MG and U373MG cells [4]": {"test_system": "U87MG and U373MG cells", "test": "LysoTracker assay with GFP-LC3B (autophagosome-lysosome fusion) in GBM cells", "assay_type": "cell-based, human", "settings": "PD 10 μM, 24 hours", "description": "[…] Then, cells were stained with LysoTracker (red) and DAPI (blue). The merged images show an overlap between GFP-LC3 and LysoTracker (yellow). The panels on the right are higher-magnification images of the boxed regions.\nCultured cells seeded in plates with microscope coverslips were transfected with a pGFP-LC3B plasmid using Lipofectamine 3000 (Thermo Fisher Scientific) according to the manufacturer's instructions. After the transfection, the cells were fixed with 4% paraformaldehyde (PFA) in phosphate-buffered saline (PBS) at room temperature for 10 minutes. The images were examined under a laser confocal microscope (Zeiss, Oberkochen, Baden-Wurttemberg, Germany).\nTo stain acidic compartments, 50 nM LysoTrackerRedDND-99 (Thermo Fisher Scientific) was added to a medium at 37° C. with 5% CO2 for 30 minutes prior to fixation. The nuclei were labeled with 4,6-diamidino-2-phenylindole (DAPI, Sigma). The slides were finally mounted using a Faramount mounting medium (Dako, Glostrup, Denmark). The images were examined under a Zeiss laser confocal microscope.\nExperimental Result 11. PD Blocks Fusion of Autophagosomes with Lysosomes. Since p62 was accumulated in autophagosomes by PD treatment, it was speculated that PD may cause the lysosomal dysfunction like bafilomycin A1, which inhibits vacuolar H^+-ATPase (V-ATPase)-dependent lysosomal acidification and blocks autophagosome-lysosome fusion. Thus, the PD-treated cells with LysoTracker Red, which is a marker for acidic compartment including lysosomes was stained to examine the colocalization of GFP-LC3B."}}}
{"smiles": "C[C@@H]1O[C@@H](O[C@H]2[C@H](OC(=O)[C@]34CCC(C)(C)C[C@H]3C3=CC[C@@H]5[C@@]6(C)C[C@H](O)[C@H](O[C@@H]7O[C@H](CO)[C@@H](O)[C@H](O)[C@H]7O)C(CO)(CO)[C@@H]6CC[C@@]5(C)[C@]3(C)C[C@H]4O)OC[C@H](O)[C@@H]2O)[C@H](O)[C@H](O)[C@H]1O[C@@H]1OC[C@@H](O)[C@H](O[C@@H]2OC[C@](O)(CO)[C@H]2O)[C@H]1O", "note": "[PD, platycodin D]", "values": [{"measurement": "cellular cholesterol distribution (filipin-III staining)", "setting": "U87MG and U373MG cells [1]", "value": "induces cholesterol accumulation within intracellular vesicles"}, {"measurement": "cell morphology (cytoplasmic vacuoles)", "setting": "U87MG and U373MG cells [2]", "value": "exhibited cytoplasmic vacuoles"}, {"measurement": "level of p62 together with LC3-II", "setting": "[3]", "value": "enhanced level"}, {"measurement": "lysosomal acidification (LysoTracker Red fluorescence)", "setting": "U87MG and U373MG cells [4]", "value": "does not affect lysosomal acidification"}, {"measurement": "colocalization of GFP-LC3B and LysoTracker Red staining", "setting": "U87MG and U373MG cells [4]; BafA1 100 nM, Rapa 1 μM", "value": "significant separation"}]}
